Source: US5693617A, “Inhibitors of the 26s proteolytic complex and the 20s proteasome contained therein” (ProScript, Inc., priority 1995, dated 1997)
“Also recorded” adds a separate entry of the source. Non-standard residues stand in square brackets, D forms with d. Residues, ends and D or L forms follow the SMILES beside them. Nle = CCCC[C@H](N)C(=O)O

Legend:
[1] = biological target: T1, 20S proteasome (Oryctolagus cuniculus, UniProt G1T4Q9); assay: Inhibition of the 20S proteasome peptidase activity (kinetic experiments); assay type: biochemical, Rabbit
T1 sequence (G1T4Q9 60-263): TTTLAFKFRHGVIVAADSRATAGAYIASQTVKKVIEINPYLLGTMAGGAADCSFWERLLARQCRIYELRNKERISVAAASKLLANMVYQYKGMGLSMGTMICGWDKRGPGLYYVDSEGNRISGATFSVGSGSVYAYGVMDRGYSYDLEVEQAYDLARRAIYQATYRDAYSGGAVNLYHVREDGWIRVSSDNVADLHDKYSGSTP
T1 sequence (G1SU71 1-241 partner): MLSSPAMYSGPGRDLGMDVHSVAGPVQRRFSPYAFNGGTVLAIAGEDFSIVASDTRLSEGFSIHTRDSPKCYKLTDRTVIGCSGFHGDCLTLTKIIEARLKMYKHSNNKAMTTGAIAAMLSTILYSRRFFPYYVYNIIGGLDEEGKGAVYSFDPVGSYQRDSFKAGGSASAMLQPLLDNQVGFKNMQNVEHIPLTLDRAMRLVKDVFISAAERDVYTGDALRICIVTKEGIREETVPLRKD
Text: (§1) Tables I-III summarize results from kinetic experiments that measured the inhibition of the 20S and 26S proteasomes, as well as cathepsin B and calpain, enzymes that may also be involved in muscle protein turnover. In these tables, Ki values are reported, which are dissociation constants for the equilibrium that is established when enzyme and inhibitor interact to form the enzyme:inhibitor complex.
(§2) The substances and assay conditions are briefly summarized in the footnotes to Table I. MG 101 and MG 102, also known as Calpain Inhibitor I and II, were purchased from Calbiochem as catalogue products.
(^a) Rabbit muscle. SDSactivated. Substrate: SucLLVYAMC.

[2] = biological target: T2, 26S proteasome (Oryctolagus cuniculus, UniProt G1T4Q9); assay: Inhibition of the 26S proteasome (kinetic experiments); assay type: biochemical, Rabbit; conditions: summary of enzyme inhibition; read-out: Ki, 26S proteasome complex activity
T2 sequence (G1T4Q9 60-263): T1 sequence (G1T4Q9 60-263)
T2 sequence (G1SU71 1-241 partner): T1 sequence (G1SU71 1-241 partner)
Text: as §1, §2
(^b) Rabbit muscle. Substrate: […]. [Mg:ATP] = 2 mM.

[3] = test system: rat diaphragm muscle; assay: T3 induced protein degradation in incubated rat diaphragm; conditions: 40 μM MG 101; FIG. 3
Protocol: T3 was administered to hypophysectomized rats for 7 days. […] After incubation, the tissue was homogenized, and ^3 -phenylalanine incorporation into protein and free tyrosine of the medium was measured.

[4] = test system: rat soleus muscle; assay: Denervation-induced protein degradation in incubated rat soleus muscle; conditions: 100 μM MG 101; FIG. 4
Protocol: One leg of each of seven rats was denervated by section of the sciatic nerve 3 days prior to sacrifice. […] After incubation, the tissue was homogenized, and ^3 -phenylalanine incorporation into protein and free tyrosine of the medium was measured.

[5] = test system: mouse B lymphoblastoid cell line (LB27.4); assay: MHC-I antigen presentation, electroporated antigen-presenting cells; assay type: cell-based
Protocol: (§3) Antigen-presenting cells (APCs)--mouse B lymphoblastoid cell line (LB27.4)--were washed free of serum and loaded with an ovalbumin peptide (residues 257-263), which corresponds to the sequence these cells naturally generate and present. The APCs were incubated 1 hr at 37° C., electroporated with antigen, incubated 10 min on ice and washed. The antigen loaded cells were incubated 2 hrs at 37° C., fixed with paraformaldehyde, and washed. MG 101 at the concentrations indicated in FIG. 5 was present in all steps prior to fixation. APCs were assayed for antigen presentation as described in Rock et al., J. Immunol. 145:804-811 (1990) and Carbone et al., J. Exp Med. 171:377-387 (1990). […] In the left panel, APCs were treated with (open circles) or without (closed circles) MG 101 and electroporated with ovalbumin. In the right panel, APCs were treated with (open circles) or without (closed circles) MG 101 and electroporated with ovalbumin peptide.

[6] = test system: RMA cells; assay: Class I MHC assembly in RMA cells; assay type: cell-based
Protocol: Class I MHC molecules are peptide-binding receptors composed of a heavy and a light chain. Peptide binding to these molecules is essential for the stable association of the heavy and light chains. […] To test the effect of MG 101 on class I assembly, RMA cells were incubated with and without MG 101 (100 μM) for 1 hr at 37° C., electroporated with and without MG 101 (100 μM) as described in Example 7, and incubated with and without MG 101 (100 μM) for 3 hrs at 37° C. Over the last 30 min of incubation the cells were pulse labeled with ^35 S-methionine and were then washed and detergent lysates were prepared. Lysates were divided and class I binding peptides were added to one group. Class I molecules were immunoprecipitated with a mAb, Y3 (Townsend et al., Cell 62:285-295 (1990)), that only reacts with assembled class I heterodimers and analyzed as previously described ([…] et al., Nature 363:552-554 (1993)).

[7] = test system: human cell line RAJI-K^b; assay: MHC-I antigen presentation in human cells; assay type: cell-based; conditions: FIG. 8
Protocol: as §3, with “peptide. Example 7 was repeated except that the human cell line RAJI-K^b was used.” for “peptide.”

[8] = biological target: chymotrypsin-like activity of the proteasome; conditions: Vinitsky et al. 1992; slow binding inhibitors; cited from earlier work

With `CCCC[C@@H](C=O)NC(=O)[C@H](CC(C)C)NC(=O)[C@H](CC(C)C)NC(C)=O` [MG 101, Ac-Leu-Leu-Nle-H] (Ac-Leu-Leu-[Nle]-aldehyde) the “Mode of inhibition of peptidase activity of muscle 20S proteasome” value ([1]; FIG. 1) was “competitive inhibitor”, the Ki ([1]; both latent and active forms of 20S proteasome, read-out: Ki, peptidase activities of 20S proteasome) was 0.14 to 7 µM and the Ki [2] was 2.9 µM. For the same compound, the “Protein degradation induced by T3 in incubated rat diaphragm” value [3] was “inhibits the accelerated proteolysis in muscle; also recorded: inhibition of protein degradation”, the “Protein degradation induced by denervation in incubated rat soleus muscle” value [4] was “inhibits the accelerated proteolysis in muscle; also recorded: inhibition of protein degradation” and the “MHC-I presentation of ovalbumin peptide” value ([5]; APCs electroporated with ovalbumin peptide, FIG. 5 right panel) was “fails to block the presentation of the specific peptide; also recorded: does not inhibit the presentation of electroporated peptide”. For the same compound, the “MHC-I presentation of ovalbumin” value ([5]; APCs electroporated with ovalbumin, FIG. 5 left panel) was “inhibits the presentation of ovalbumin with class I MHC molecules; also recorded: inhibits presentation of antigen from ovalbumin”, the “Assembly of class I heterodimers” value ([6]; 100 μM MG 101, FIG. 7) was “markedly reduced” and the “Class I complex formation from introduced antigenic peptide” value ([6]; 100 μM MG 101, FIG. 7 lane 4) was “fails to inhibit complex formation from introduced antigenic peptide”. The “Appearance of MHC-I molecules on the cell surface” value ([6]; FIG. 7) was “specifically blocks the movement of functional MHC-I complexes to the cell surface; also recorded: blocks the appearance of MHC-I molecules on the cell surface”, the “Level of the individual class I subunits” value ([6]; control experiments) was “does not affect the level of the individual subunits” and the “Presentation of antigen from ovalbumin in human cells” value [7] was “prevents antigen presentation in human cells; also recorded: inhibits presentation of antigen from ovalbumin in human cells”. For the same compound, the Ki [8] was 5.7 µM.
